Data from ChEMBL document CHEMBL6182868, “Structural simplification of quaternary benzophenanthridine alkaloids generating a candidate for the treatment of non-small cell lung cancer” (Eur J Med Chem, 2025).
Active and inactive are the calls of the source. The rule behind the calls is not given here.

Assays:
[1] = Inhibition of TrxR (unknown origin) incubated for 2 hrs in presence of NADPH by DTNB assay; parameters: species or system Homo sapiens
HeLa [2] = assay: Cytotoxicity against human HeLa cells incubated for 24 to 48 hrs by MTT assay; type: functional, cell-based
HepG2 = assay: Cytotoxicity against human HepG2 cells incubated for 24 to 48 hrs by MTT assay; type: functional, cell-based
A549 [3] = assay: Cytotoxicity against human A549 cells incubated for 24 to 48 hrs by MTT assay; type: functional, cell-based
[4] = Inhibition of TrxR in human A549 cells incubated for 24 hrs by endpoint insulin reduction assay; type: cell-based
Homo sapiens [5] = species on record: Homo sapiens; assay: Inhibition of TrxR U498C mutant (unknown origin) incubated for 2 hrs in presence of NADPH by DTNB assay
[6] = GSH reactivity in TE buffer assessed as remaining concentration of compound incubated 1 to 4 hrs at 37 degreeC by HPLC analysis; type: physicochemical; settings: TE buffer with GSH, time 1-4 hrs, read-out: Stability
[7] = Cys reactivity in TE buffer assessed as remaining concentration of compound incubated 1 to 4 hrs at 37 degreeC by HPLC analysis; type: physicochemical; settings: TE buffer with cysteine, time 1-4 hrs, read-out: Activity
A549 [8] = assay: Induction of ROS accumulation in human A549 cells assessed as increase in fluorescence intensity incubated for 6 hrs by DCFH-DA/DHE staining based analysis; type: functional, cell-based; settings: dose 1-5 µM
A549 [9] = assay: Induction of oxidative stress in human A549 cells assessed as increase in GSSG levels at 1 to 5 uM incubated for 24 hrs by microplate reader analysis; type: functional, cell-based; settings: dose 1-5 µM
A549 [10] = assay: Induction of oxidative stress in human A549 cells assessed as decrease in GSH/GSSG ratio at 1 to 5 uM incubated for 24 hrs by microplate reader analysis; type: functional, cell-based; settings: dose 1-5 µM
A549 [11] = assay: Induction of oxidative stress in human A549 cells assessed as decrease in intracellular total thiol levels at 5 uM incubated for 24 hrs by DTNB titration based microplate reader analysis relative to control; type: functional; parameters: scale not given: the % may be the effect or the level left
A549 [12] = assay: Induction of apoptosis in human A549 cells assessed as increase in blue fluorescence at 1 to 5 uM incubated for 24 hrs by Hoechst 33342 staining based fluorescence microscopic analysis; type: functional, cell-based; settings: dose 1-5 µM
A549 [13] = assay: Induction of apoptosis in human A549 cells assessed as increase in caspase 3 activation incubated for 24 hrs by colorimetric assay; type: functional, cell-based; settings: dose 1-5 µM
A549 [14] = assay: Induction of apoptosis in human A549 cells assessed as apoptotic cell count incubated for 6 hrs by annexin V-FITC and PI staining based flow cytometric analysis; type: functional; settings: dose 1-5 µM
A549 [15] = assay: Induction of apoptosis in human A549 cells assessed as decrease in Bcl-2 protein expression at 2 to 5 uM incubated for 24 hrs by Western blot analysis; type: functional, cell-based; settings: dose 2-5 µM
A549 [16] = assay: Induction of apoptosis in human A549 cells assessed as increase in Bax protein expression at 2 to 5 uM incubated for 24 hrs by Western blot analysis; type: functional, cell-based; settings: dose 2-5 µM
A549 [17] = assay: Inhibition of TrxR in human A549 cells assessed as decrease in green fluorescence intensity incubated for 24 hrs by TRFS-green staining based fluorescent microscopic analysis; type: cell-based; settings: dose 1-5 µM
A549 [18] = assay: Induction of apoptosis in human A549 cells assessed as conversion of caspase 3 to cleaved caspase 3 at 2 to 5 uM incubated for 24 hrs by Western blot analysis; type: functional, cell-based; settings: dose 2-5 µM
A549 [19] = assay: Induction of oxidative stress in human A549 cells assessed as activation of ERK pathway by measuring change in protein level incubated for 24 hrs; type: functional, cell-based
A549 [20] = assay: Inhibition of colony formation in human A549 cells assessed as decrease in number of colonies incubated for 1 day in 5% CO2 at 37 degC followed by replacement with fresh culture medium for every 2 days and measured after 10 days by crystal violet staining based analysis; type: functional, cell-based; settings: dose 0.25-0.5 µM
[21] = Cytotoxicity against human LO2 cells assessed as cell viability at 1 to 20 uM incubated for 24 hrs by MTT assay; type: toxicity, cell-based, L02
A549 [22] = assay: Antitumor activity against human A549 cells xenografted in male BALB/c nude mouse assessed as tumor growth inhibition at 3 to 6 mg/kg, ip administrated for every 3 days and measured after 21 days relative to control; type: functional; settings: dose 3-6 mg/kg, time 21 day
A549 [23] = assay: Antitumor activity against ip dosed human A549 cells xenografted in male BALB/c nude mouse assessed as tumor size administered and measured every 3 days for 21 days; type: functional, organism-based; settings: dose 3-6 mg/kg, time 21.0 day
A549 [24] = assay: Antitumor activity against ip dosed human A549 cells xenografted in male BALB/c nude mouse assessed as tumor weight administered and measured every 3 days for 21 days; type: functional, organism-based; settings: dose 3-6 mg/kg, time 21.0 day
[25] = Toxicity in male BALB/c nude mouse xenografted with human A549 cells assessed as effect on body weight 3 to 6 mg/kg, ip administered and measured every 3 days for 21 days; type: organism-based; settings: in vivo, 504 h, dose 3-6 mg/kg, time 21 day
[26] = Half life in Sprague-Dawley rat at 10 mg/kg, po measured up to 24 hrs by LC-MS/MS analysis; type: ADME, organism-based; settings: in vivo
[27] = Tmax in Sprague-Dawley rat at 10 mg/kg, po measured up to 24 hrs by LC-MS/MS analysis; type: ADME, organism-based; settings: in vivo
[28] = AUC (0 to 24 hrs) in Sprague-Dawley rat at 10 mg/kg, po measured up to 24 hrs by LC-MS/MS analysis; type: ADME, organism-based; settings: in vivo
[29] = Toxicity in male BALB/c nude mouse xenografted with human A549 cells assessed as effect on heart at 3 to 6 mg/kg, ip administered for 21 days; type: organism-based; settings: in vivo, 504 h, dose 3-6 mg/kg, time 21 day
[30] = Toxicity in male BALB/c nude mouse xenografted with human A549 cells assessed as effect on liver at 3 to 6 mg/kg, ip administered for 21 days; type: organism-based; settings: in vivo, 504 h, dose 3-6 mg/kg, time 21 day
[31] = Toxicity in male BALB/c nude mouse xenografted with human A549 cells assessed as effect on lung at 3 to 6 mg/kg, ip administered for 21 days; type: organism-based; settings: in vivo, 504 h, dose 3-6 mg/kg, time 21 day
[32] = Toxicity in male BALB/c nude mouse xenografted with human A549 cells assessed as effect on kidney at 3 to 6 mg/kg, ip administered for 21 days; type: organism-based; settings: in vivo, 504 h, dose 3-6 mg/kg, time 21 day
[33] = Toxicity in male BALB/c nude mouse xenografted with human A549 cells assessed as effect on spleen at 3 to 6 mg/kg, ip administered for 21 days; type: organism-based; settings: in vivo, 504 h, dose 3-6 mg/kg, time 21 day
A549 [34] = assay: Cytotoxicity against human A549 cells assessed as cell viability at 1 to 20 uM cotreated with BSO incubated for 24 hrs by MTT assay; type: functional, cell-based; settings: dose 1-20 µM
A549 [35] = assay: Cytotoxicity against human A549 cells assessed as cell viability at 1 to 20 uM cotreated with NAC incubated for 24 hrs by MTT assay; type: functional, cell-based; settings: dose 1-20 µM
HeLa [36] = assay: Cytotoxicity against human HeLa cells harboring shNT-negative control assessed as cell viability at 1 to 5 uM incubated for 48 hrs by MTT assay; type: functional, cell-based; settings: dose 1-5 µM
HeLa [37] = assay: Cytotoxicity against human HeLa cells harboring shTrxR1 assessed as cell viability at 1 to 5 uM incubated for 48 hrs by MTT assay; type: functional, cell-based; settings: dose 1-5 µM
A549 [38] = assay: Induction of apoptosis in human A549 cells assessed as small and condensed nuclei at 1 to 5 uM incubated for 24 hrs by Hoechst 33342 staining based fluorescence microscopic analysis; type: functional, cell-based; settings: dose 1-5 µM
Homo sapiens [39] = species on record: Homo sapiens; assay: Inhibition of TrxR (unknown origin) assessed as remaining activity at 50 uM incubated for 2 hrs in presence of NADPH by DTNB assay relative to control

COc1cc2c[n+](C)c3c4cc5c(cc4ccc3c2cc1OC)OCO5 [NITIDINE CHLORIDE]
IC50 [1]: 38.2 µM | IC50 (HeLa [2]): 1.7 µM | IC50 (HepG2): 1.8 µM | IC50 (A549 [3]): 4 µM | IC50 [4]: 12.2 µM

C[n+]1cc2ccccc2c2cc(F)ccc21
IC50 [1]: > 50 µM | IC50 (HeLa [2]): 31.4 µM | IC50 (HepG2): 34.7 µM | IC50 (A549 [3]): > 50 µM

Fc1ccc2ncc3ccccc3c2c1
IC50 [1]: > 50 µM | IC50 (HeLa [2]): > 50 µM | IC50 (HepG2): > 50 µM | IC50 (A549 [3]): > 50 µM

c1ccc2c(c1)cnc1ccccc12 [PHENANTHRIDINE]
IC50 [1]: > 50 µM | IC50 (HeLa [2]): > 50 µM | IC50 (HepG2): > 50 µM | IC50 (A549 [3]): > 50 µM

COc1cc(OC)c2c3ccccc3c[n+](C)c2c1.[I-]
IC50 [1]: 10.2 µM | IC50 (HeLa [2]): 3.4 µM | IC50 (HepG2): 5 µM | IC50 (A549 [3]): 2.1 µM | inhibition (Homo sapiens [5]): Active; Minimal Inhibition Was Observed | remaining at 50 µM [6]: 94% | remaining at 50 µM [7]: 102% | Activity (A549 [8]): Dose-dependent-effect | Activity (A549 [9]): Active | Activity (A549 [10]): inactive | Activity (A549 [11]): ~50% | Activity (A549 [12]): Active | Activity (A549 [13]): Dose-dependent-effect | Activity (A549 [14]): Dose-dependent-effect | Activity (A549 [15]): Dose-dependent-effect | Activity (A549 [16]): Dose-dependent-effect | IC50 [4]: 3.94 µM | inhibition (A549 [17]): Dose-dependent-effect | Activity (A549 [18]): Dose-dependent-effect | Activity (A549 [19]): Active | inhibition (A549 [20]): Dose-dependent-effect | IC50 at 24 h [21]: > 20 µM | TGI (A549 [22]): 65.49% | Activity (A549 [23]): Dose-dependent-effect | Activity (A549 [24]): Dose-dependent-effect | Activity [25]: Non-toxic | half-life [26]: 2.58 h | Tmax [27]: 2 h | AUC [28]: 1060 ng·h/mL | Activity [29]: Non-toxic | Activity [30]: Non-toxic | Activity [31]: Non-toxic | Activity [32]: Non-toxic | Activity [33]: Non-toxic | Activity (A549 [34]): Active | Activity (A549 [35]): inactive | Activity (HeLa [36]): Active | Activity (HeLa [37]): Active; Compound Exhibited Increased Sensitivity Compared To Hela-Shnt Cells (Negative Control) | Activity (A549 [38]): Active

Cc1ccc2c(c1)c1ccccc1c[n+]2C
IC50 [1]: > 50 µM | IC50 (HeLa [2]): 12.3 µM | IC50 (HepG2): 15 µM | IC50 (A549 [3]): 18.5 µM

COc1ccc2c(c1)c1ccccc1c[n+]2C
IC50 [1]: > 50 µM | IC50 (HeLa [2]): 19.5 µM | IC50 (HepG2): 19.5 µM | IC50 (A549 [3]): 17.6 µM

COc1cc(OC)c2c(c1)ncc1ccccc12
IC50 [1]: > 50 µM | IC50 (HeLa [2]): > 50 µM | IC50 (HepG2): > 50 µM | IC50 (A549 [3]): > 50 µM

C[n+]1cc2c3c(ccc2c2ccc4cc5c(cc4c21)OCO5)OCO3 [SANGUINARIUM CHLORIDE]
IC50 [1]: 23 µM | IC50 (HeLa [2]): 2.4 µM | IC50 (HepG2): 2.6 µM | IC50 (A549 [3]): 6.9 µM

COc1cc2ncc3ccccc3c2c(OC)c1OC
IC50 [1]: > 50 µM | IC50 (HeLa [2]): > 50 µM | IC50 (HepG2): > 50 µM | IC50 (A549 [3]): > 50 µM

COc1ccc2c(c[n+](C)c3c4cc5c(cc4ccc23)OCO5)c1OC [CHELERYTHRINE CHLORIDE]
IC50 [1]: 14.9 µM | IC50 (HeLa [2]): 9.6 µM | IC50 (HepG2): 8.3 µM | IC50 (A549 [3]): 8 µM

CN1Cc2ccccc2-c2ccc3ccccc3c21
IC50 (HeLa [2]): > 50 µM | IC50 (HepG2): > 50 µM | IC50 (A549 [3]): > 50 µM | Activity (Homo sapiens [39]): 97%

C[n+]1cc2ccccc2c2ccc3ccccc3c21
IC50 (HeLa [2]): 5.2 µM | IC50 (HepG2): 5.4 µM | IC50 (A549 [3]): 7.3 µM | Activity (Homo sapiens [39]): 64%

c1ccc2c(c1)cnc1c3ccccc3ccc21
IC50 (HeLa [2]): > 50 µM | IC50 (HepG2): > 50 µM | IC50 (A549 [3]): > 50 µM | Activity (Homo sapiens [39]): 93%

Cc1ccc2ncc3ccccc3c2c1
IC50 [1]: > 50 µM | IC50 (HeLa [2]): > 50 µM | IC50 (HepG2): > 50 µM | IC50 (A549 [3]): > 50 µM

COc1cc2c(c(OC)c1OC)c1ccccc1c[n+]2C
IC50 [1]: > 50 µM | IC50 (HeLa [2]): 22.5 µM | IC50 (HepG2): 21.9 µM | IC50 (A549 [3]): 16.9 µM

COc1ccc2ncc3ccccc3c2c1
IC50 [1]: > 50 µM | IC50 (HeLa [2]): > 50 µM | IC50 (HepG2): > 50 µM | IC50 (A549 [3]): > 50 µM

C[n+]1cc2ccccc2c2ccccc21
IC50 [1]: > 50 µM | IC50 (HeLa [2]): 28 µM | IC50 (HepG2): 32.3 µM | IC50 (A549 [3]): 35.8 µM
